Assay results: patent US11708359B2, “Monoacylglycerol lipase modulators” (Janssen Pharmaceutica NV, priority 2020, dated 2023)
Like-named read-outs stand apart in the source and are kept apart here.

Target: human MGL from HeLa cells (Homo sapiens (Human), UniProt Q99685)
Test: MGL in vitro activity assay ([glycerol-1,3-3H]-oleoyl glycerol cleavage, activated carbon filter)
Assay type: biochemical
Method: The assay consists of combining endogenously expressed MGL from HeLa cells with test compounds, adding[glycerol-1,3-^3H]-oleoyl glycerol, incubating for one hour, and then measuring the amount of cleaved[1,3-^3H]-glycerol that passes through an activated carbon filter. The amount of cleaved, tritiated glycerol passing through the carbon filter is proportional to the activity of the MGL enzyme in a particular well/test condition.
Standard conditions for this assay combine 300 nM [Glycerol-1,3-^3H]-oleoyl glycerol with human MGL from HeLa cells and test compounds for one hour, after which the reaction is filtered through activated carbon and tritium is measured in the flow through. […] MGL is the predominant hydrolase in HeLa cells/cell homogenates.

[1] = 300 nM [Glycerol-1,3-3H]-oleoyl glycerol, endogenously expressed MGL from HeLa cells, one hour incubation, read-out: MGL IC50

human MGL from HeLa cells, sequence (Q99685 whole entry): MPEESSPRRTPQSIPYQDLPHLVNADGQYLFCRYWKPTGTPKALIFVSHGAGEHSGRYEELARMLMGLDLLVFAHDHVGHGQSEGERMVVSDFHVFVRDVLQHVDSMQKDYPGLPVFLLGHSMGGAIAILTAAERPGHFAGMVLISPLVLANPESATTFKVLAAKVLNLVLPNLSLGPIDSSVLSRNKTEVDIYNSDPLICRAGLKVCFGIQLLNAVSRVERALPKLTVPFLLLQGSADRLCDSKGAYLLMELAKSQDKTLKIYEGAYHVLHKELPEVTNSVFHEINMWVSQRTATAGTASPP

SMILES | IC50 [1] | IC50
O=C1CC[C@]2(C[C@H](C(=O)N3CCC4(c5ccc(OC(F)(F)F)cc5)CC4C3)C2)N1 (mixture of isomers) [Example 55, (rac)-(2r,4s)-2-(6-(4-(Trifluoromethoxy)phenyl)-3-azabicyclo[4.1.0]heptane-3-carbonyl)-5-azaspiro[3.4]octan-6-one] | 10 nM | 
Cc1ccc(C23CCN(C(=O)[C@H]4C[C@]5(COC(=O)N5)C4)CC2C3)cc1 (mixture of isomers) [Example 56, (rac)-(2s,4s)-2-(6-(p-Tolyl)-3-azabicyclo[4.1.0]heptane-3-carbonyl)-7-oxa-5-azaspiro[3.4]octan-6-one] | 7.7 nM | 
O=C1N[C@]2(CO1)C[C@H](C(=O)N1CCC3(c4cccc(C(F)(F)F)c4)CC3C1)C2 (mixture of isomers) [Example 57, (rac)-(2s,4s)-2-(6-(3-(Trifluoromethyl)phenyl)-3-azabicyclo[4.1.0]heptane-3-carbonyl)-7-oxa-5-azaspiro[3.4]octan-6-one] | 1.9 nM | 
CC(C)(C)c1cccc(C23CCN(C(=O)[C@H]4C[C@]5(COC(=O)N5)C4)CC2C3)c1 (mixture of isomers) [Example 60, (rac)-(2s,4s)-2-(6-(3-(tert-Butyl)phenyl)-3-azabicyclo[4.1.0]heptane-3-carbonyl)-7-oxa-5-azaspiro[3.4]octan-6-one] | 0.0072 nM | 
CC(C)(C)c1cccc(C23CCN(C(=O)[C@H]4C[C@]5(CCC(=O)N5)C4)CC2C3)c1 (mixture of isomers) [Example 61, (rac)-(2r,4s)-2-(6-(3-(tert-Butyl)phenyl)-3-azabicyclo[4.1.0]heptane-3-carbonyl)-5-azaspiro[3.4]octan-6-one] | 0.25 nM | 
CC(C)(C)c1ccc(C23CCN(C(=O)[C@H]4C[C@]5(CCC(=O)N5)C4)CC2C3)cc1 (mixture of isomers) [Example 63, (rac)-(2r,4s)-2-(6-(4-(tert-Butyl)phenyl)-3-azabicyclo[4.1.0]heptane-3-carbonyl)-5-azaspiro[3.4]octan-6-one] | 0.41 nM | 
O=C1N[C@]2(CO1)C[C@H](C(=O)N1CCC3(c4cccc(C5CC5)c4)CC3C1)C2 (mixture of isomers) [Example 64, (rac)-(2s,4s)-2-(6-(3-Cyclopropylphenyl)-3-azabicyclo[4.1.0]heptane-3-carbonyl)-7-oxa-5-azaspiro[3.4]octan-6-one] | 0.65 nM | 
O=C1CC[C@]2(C[C@H](C(=O)N3CCC4(c5cccc(C6CC6)c5)CC4C3)C2)N1 (mixture of isomers) [Example 65, (rac)-(2r,4s)-2-(6-(3-Cyclopropylphenyl)-3-azabicyclo[4.1.0]heptane-3-carbonyl)-5-azaspiro[3.4]octan-6-one] | 4 nM | 
O=C1N[C@]2(CO1)C[C@H](C(=O)N1CCC3(c4ccc(C5CC5)cc4)CC3C1)C2 (mixture of isomers) [Example 66, (rac)-(2s,4s)-2-(6-(4-Cyclopropylphenyl)-3-azabicyclo[4.1.0]heptane-3-carbonyl)-7-oxa-5-azaspiro[3.4]octan-6-one] | 0.69 nM | 
Cc1ccc(C23CCN(C(=O)[C@H]4C[C@]5(CCC(=O)N5)C4)CC2C3)cc1Cl (mixture of isomers) [Example 68, (rac)-(2r,4s)-2-(6-(3-Chloro-4-methylphenyl)-3-azabicyclo[4.1.0]heptane-3-carbonyl)-5-azaspiro[3.4]octan-6-one] | 5.6 nM | 
CC1(c2ccc(C34CCN(C(=O)[C@H]5C[C@]6(CCC(=O)N6)C5)CC3C4)cc2)CC1 (mixture of isomers) [Example 70, (rac)-(2r,4s)-2-(6-(4-(1-Methylcyclopropyl)phenyl)-3-azabicyclo[4.1.0]heptane-3-carbonyl)-5-azaspiro[3.4]octan-6-one] | 0.52 nM | 
Cc1cc(C2CC2)ccc1C12CCN(C(=O)[C@H]3C[C@]4(COC(=O)N4)C3)CC1C2 (mixture of isomers) [Example 72, (rac)-(2s,4s)-2-(6-(4-Cyclopropyl-2-methylphenyl)-3-azabicyclo[4.1.0]heptane-3-carbonyl)-7-oxa-5-azaspiro[3.4]octan-6-one] | 2.1 nM | 
CC(C)c1cccc(C23CCN(C(=O)[C@H]4C[C@]5(COC(=O)N5)C4)CC2C3)c1 (mixture of isomers) [Example 73, (rac)-(2s,4s)-2-(6-(3-Isopropylphenyl)-3-azabicyclo[4.1.0]heptane-3-carbonyl)-7-oxa-5-azaspiro[3.4]octan-6-one] | 0.25 nM | 
Cc1ccc(C23CCN(C(=O)[C@H]4C[C@]5(COC(=O)N5)C4)CC2C3)cc1OC(F)(F)F (mixture of isomers) [Example 75, (rac)-(2s,4s)-2-(6-(4-Methyl-3-(trifluoromethoxy)phenyl)-3-azabicyclo[4.1.0]heptane-3-carbonyl)-7-oxa-5-azaspiro[3.4]octan-6-one] |  | 0.34 nM
Cc1ccc(C23CCN(C(=O)[C@H]4C[C@]5(CCC(=O)N5)C4)CC2C3)cc1OC(F)(F)F (mixture of isomers) [Example 76, (rac)-(2r,4s)-2-(6-(4-Methyl-3-(trifluoromethoxy)phenyl)-3-azabicyclo[4.1.0]heptane-3-carbonyl)-5-azaspiro[3.4]octan-6-one] |  | 2.6 nM
O=C1CCC2(CC(C(=O)N3CC[C@@]4(c5cccc(OC(F)(F)F)c5)C[C@H]4C3)C2)N1 (relative stereo) [Example 119, (2r,4*5)-2-((1*R,6*5)-6-(3-(Trifluoromethoxy)phenyl)-3-azabicyclo[4.1.0]heptane-3-carbonyl)-5-azaspiro[3.4]octan-6-one] | 5.2 nM | 
O=C1CCC2(CC(C(=O)N3CC[C@]4(c5cccc(OC(F)(F)F)c5)C[C@@H]4C3)C2)N1 (relative stereo) [Example 120, (2r,4*R)-2-((1*S,6*R)-6-(3-(Trifluoromethoxy)phenyl)-3-azabicyclo[4.1.0]heptane-3-carbonyl)-5-azaspiro[3.4]octan-6-one] | 23 nM | 

Now from value to molecule, other results behind:

IC50 [1] | SMILES | IC50
241 nM | O=C1N[C@]2(CO1)C[C@H](C(=O)N1CCC3CC3(c3ccccc3)C1)C2 (mixture of isomers) [Example 77, (rac)-(2s,4s)-2-(1-Phenyl-3-azabicyclo[4.1.0]heptane-3-carbonyl)-7-oxa-5-azaspiro[3.4]octan-6-one] | 
3.5 nM | CCc1ccc(C23CC2CN(C(=O)[C@H]2C[C@]4(COC(=O)N4)C2)C3)cc1 (mixture of isomers) [Example 94, (rac)-(2s,4s)-2-(1-(4-Ethylphenyl)-3-azabicyclo[3.1.0]hexane-3-carbonyl)-7-oxa-5-azaspiro[3.4]octan-6-one] | 
180 nM | Cc1ccccc1[C@H]1[C@@H]2CN(C(=O)[C@H]3C[C@]4(COC(=O)N4)C3)C[C@@]21C (racemic) [Example 97, (rac)-(2s,4*S)-2-((1*R,5*S,6*R)-1-Methyl-6-(o-tolyl)-3-azabicyclo[3.1.0]hexane-3-carbonyl)-7-oxa-5-azaspiro[3.4]octan-6-one] | 
23 nM | Cc1ccc([C@H]2[C@@H]3CN(C(=O)[C@H]4C[C@]5(COC(=O)N5)C4)C[C@@]32C)cc1C (racemic) [Example 102, (rac)-(2s,4*5)-2-((1*R,5*S,6*R)-6-(3,4-Dimethylphenyl)-1-methyl-3-azabicyclo[3.1.0]hexane-3-carbonyl)-7-oxa-5-azaspiro[3.4]octan-6-one] | 
28 nM | C[C@]12CN(C(=O)[C@H]3C[C@]4(COC(=O)N4)C3)C[C@H]1[C@@H]2c1cccc(C(F)(F)F)c1 (racemic) [Example 106, (rac)-(2s,4*5)-2-((1*R,5*S,6*R)-1-Methyl-6-(3-(trifluoromethyl)phenyl)-3-azabicyclo[3.1.0]hexane-3-carbonyl)-7-oxa-5-azaspiro[3.4]octan-6-one] | 
73 nM | C[C@]12CN(C(=O)[C@H]3C[C@]4(COC(=O)N4)C3)C[C@H]1[C@@H]2c1ccc(OC(F)(F)F)cc1 (racemic) [Example 107, (rac)-(2s,4*5)-2-((1*R,5*S,6*R)-1-Methyl-6-(4-(trifluoromethoxy)phenyl)-3-azabicyclo[3.1.0]hexane-3-carbonyl)-7-oxa-5-azaspiro[3.4]octan-6-one] | 
38 nM | C[C@]12CN(C(=O)[C@H]3C[C@]4(COC(=O)N4)C3)C[C@H]1[C@@H]2c1ccc(C2CC2)cc1 (racemic) [Example 108, (rac)-(2s,4*5)-2-((1*R,5*S,6*R)-6-(4-Cyclopropylphenyl)-1-methyl-3-azabicyclo[3.1.0]hexane-3-carbonyl)-7-oxa-5-azaspiro[3.4]octan-6-one] | 
6 nM | Cc1ccc([C@H]2[C@@H]3CN(C(=O)[C@H]4C[C@]5(COC(=O)N5)C4)C[C@@]32C)cc1C(F)(F)F (racemic) [Example 112, (rac)-(2s,4*S)-2-((1*R,5*S,6*R)-1-Methyl-6-(4-methyl-3-(trifluoromethyl)phenyl)-3-azabicyclo[3.1.0]hexane-3-carbonyl)-7-oxa-5-azaspiro[3.4]octan-6-one] | 
4.1 nM | Cc1ccc([C@H]2[C@@H]3CN(C(=O)[C@H]4C[C@]5(COC(=O)N5)C4)C[C@@]32C)cc1OC(F)(F)F (racemic) [Example 114, (rac)-(2s,4*S)-2-((1*R,5*S,6*R)-1-Methyl-6-(4-methyl-3-(trifluoromethoxy)phenyl)-3-azabicyclo[3.1.0]hexane-3-carbonyl)-7-oxa-5-azaspiro[3.4]octan-6-one] | 
200 nM | O=C1N[C@]2(CO1)C[C@H](C(=O)N1CCC3(c4ccccc4)C(Cl)C3C1)C2 (mixture of isomers) [Example 123, (rac)-(2s,4s)-2-(7-Chloro-6-phenyl-3-azabicyclo[4.1.0]heptane-3-carbonyl)-7-oxa-5-azaspiro[3.4]octan-6-one] | 
32 nM | O=C1N[C@]2(CO1)C[C@H](C(=O)N1CCC3(c4ccccc4)C(C1)C3(Cl)Cl)C2 (racemic) [Example 124, (rac)-(2s,4s)-2-(7,7-Dichloro-6-phenyl-3-azabicyclo[4.1.0]heptane-3-carbonyl)-7-oxa-5-azaspiro[3.4]octan-6-one] | 
